Measured values reported in publication PMC8791448 (ACS infectious diseases, 2021).

Molecular target: T1, ecLpxC (UDP-3-O-acyl-N-acetylglucosamine deacetylase) (Escherichia coli, UniProt P0A725)
T1 sequence (P0A725 1-305): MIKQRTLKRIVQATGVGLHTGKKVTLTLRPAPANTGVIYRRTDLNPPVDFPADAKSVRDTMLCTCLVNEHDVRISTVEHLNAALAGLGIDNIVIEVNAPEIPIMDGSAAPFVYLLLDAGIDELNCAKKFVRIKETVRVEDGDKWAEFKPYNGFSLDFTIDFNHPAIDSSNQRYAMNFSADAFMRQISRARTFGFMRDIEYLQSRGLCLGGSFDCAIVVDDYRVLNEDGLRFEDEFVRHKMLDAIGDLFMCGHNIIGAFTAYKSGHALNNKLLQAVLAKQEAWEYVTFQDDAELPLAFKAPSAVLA
Assay: residence time on purified ecLpxC by displacement with fluorescent ligand PT900
Type: binding
Conditions: read-out: tR (min)^b

## C[C@@H](O)[C@H](NC(=O)c1ccc(C#Cc2ccc(CN3CCOCC3)cc2)cc1)C(=O)NO [CHIR-090]
  residence time: 66 ± 30 min
